The term IC50 denotes the concentration needed to halve the response being measured.

In brackets after ≈: the same amount, converted by molar mass.

The values below come from US5110925A, “Pyridazinone derivatives” (Nippon Soda Co., Ltd., priority 1988, dated 1992).

In one data set the test system is guinea pig left atria. As to the kind of experiment: Cardiotonic Action: Electrically Stimulating Isolated Guinea Pig Left Atria. Details: species or system guinea pig (male Hartley). The conditions noted are these: Cavia porcellus; concentration causing a 50% increase in contractility; cumulative addition, 30° C.; read-out: contractility of guinea pig left atria EC50. As for the experimental part: Male Hartley guinea pigs weighing 350-500 g were used.
The hearts were excised from the animals. The left atria were dissected from the hearts and mounted in an organ bath.
The atria were stimulated by square wave pulses of 3 msec duration and a voltage ranging from 1.2-fold to 1.5-fold of the threshold at a frequency of 60/min with an electric stimulator.
Resting tension was adjusted to 0.5 g and contraction was recorded on the Polygraph Systems with a force-displacement transducer.
All preparations were allowed to equilibrate with the bath medium for 90 to 120 min.

Another data set has as its system Anesthetized Dogs. In words: Cardiotonic Action: Anesthetized Dogs. It is filed as in vivo, dog (adult mongrel). To be noted: anesthetized dogs. Here is the method:
Adult mongrel dogs of either sex weighing 8 to 15 kg were used.
The animals were anesthetized with sodium pentobarbital (30 mg/kg, i.v.) and maintained by an intravenous infusion of the anesthetic at a rate of 4 mg/kg per hour.
A cuffed endotracheal tube was inserted and an artificial respirator installed. The animals were ventilated with room air in a tidal volume of 20 ml/kg at a rate of 20 brearhs per minute.
Cannulae were inserted into the femoral vein for a falling drop of a physiological saline or for an infusion of the anesthetic, and into the femoral artery for measuring arterial blood pressure with a pressure transducer. Heart rate was recorded with a heart rate counter triggered by the R wave of the electrocardiogram (ECG).
ECG in standard lead II was monitored with a bioelectric amplifier.
Left ventricular pressure was measured with a catheter tip pressure transducer inserted via the right carotid artery into the left ventricle. Left ventricular dp/dtmax was obtained by an electric differentiator.
The compounds were injected through the cannula in the femoral vein at a dose of 0.001-0.3 mg/0.1 ml/kg.

The next data set addresses PDE-I. In words: Inhibition of Phosphodiesterase PDE-I. It counts as biochemical, guinea pig (left ventricular muscles). To be noted: 1 mM 3H-cAMP substrate. The text has this: (§1) The preparation of different forms of cyclic nucleotide phosphodiesterase from guinea pig left ventricular muscles was done by following the procedure of Weishaar, et al. (R. Weishaar, et al., Biochemical Pharmacology, 35, 787-800, 1986) with the minor modified method of Thompson, et al. (W. J. Thompson, et al., Advances in Cyclic Nucleotide Research, 10, 69-92, 1979). Briefly, the three active forms of phosphodiesterase (PDE-I, PDE-II, PDE-III) present in the ventricular muscles were discretely eluted from a DEAE-cellulose column (Whatman, DE-52, .phi. 2.5×20 cm) using a continuous 70-800 mM sodium acetate gradient.
(§2) The phosphodiesterase activity was assayed by minor modifications of the method described by Furutani et al. (Y. Furutani, et al., Journal of Antibiotics, 28, 558-560, 1975). Briefly, 1 mM ^3 H-cAMP was hydrolyzed by the phosphodiesterase and the unhydrolyzed ^3 H-cAMP which was separated from the formed 5'-AMP by a dry alumina (Merck, activity 1, neutral) was counted by a liquid scintillation counter.
(§3) The concentrations causing a 50% inhibition of the phosphodiesterase activity (IC50) were calculated from the concentration-inhibition curves.

The next data set concerns the target T1, PDE-II (Cavia porcellus, UniProt A0A286XUV5).
T1 construct: different forms of cyclic nucleotide phosphodiesterase from guinea pig left ventricular muscles; from tissue; host or cells: guinea pig left ventricular muscle, DEAE-cellulose fraction
T1 sequence (A0A286XUV5 22-936): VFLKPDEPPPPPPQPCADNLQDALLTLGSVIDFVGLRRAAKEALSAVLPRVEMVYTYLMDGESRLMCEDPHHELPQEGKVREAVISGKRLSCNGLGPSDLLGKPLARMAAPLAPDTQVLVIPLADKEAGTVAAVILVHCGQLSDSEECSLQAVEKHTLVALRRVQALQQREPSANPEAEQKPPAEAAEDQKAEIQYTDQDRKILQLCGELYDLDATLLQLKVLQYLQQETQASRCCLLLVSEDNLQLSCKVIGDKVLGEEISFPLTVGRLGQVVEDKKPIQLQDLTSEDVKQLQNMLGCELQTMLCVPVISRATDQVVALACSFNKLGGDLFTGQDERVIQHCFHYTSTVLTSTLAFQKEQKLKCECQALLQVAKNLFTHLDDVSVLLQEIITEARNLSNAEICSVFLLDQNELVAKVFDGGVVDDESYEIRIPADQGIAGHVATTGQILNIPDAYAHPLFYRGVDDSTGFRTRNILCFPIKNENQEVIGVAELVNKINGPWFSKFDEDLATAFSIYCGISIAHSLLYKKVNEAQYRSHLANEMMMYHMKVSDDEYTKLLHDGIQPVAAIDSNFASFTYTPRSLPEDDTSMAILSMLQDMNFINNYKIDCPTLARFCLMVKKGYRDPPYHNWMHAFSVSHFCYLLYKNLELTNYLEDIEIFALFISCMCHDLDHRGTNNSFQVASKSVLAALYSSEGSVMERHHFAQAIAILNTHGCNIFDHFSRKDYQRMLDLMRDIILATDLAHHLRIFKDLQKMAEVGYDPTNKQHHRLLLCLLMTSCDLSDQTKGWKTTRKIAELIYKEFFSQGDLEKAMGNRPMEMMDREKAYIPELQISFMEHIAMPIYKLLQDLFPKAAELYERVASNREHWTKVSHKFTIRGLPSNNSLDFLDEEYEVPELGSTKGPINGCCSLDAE
As to the kind of experiment: Inhibition of Phosphodiesterase PDE-II. It counts as biochemical, guinea pig (left ventricular muscles). The conditions noted are these: 1 mM 3H-cAMP substrate.
From the text: as §1, §2, §3

The next data set has as its target T2, PDE-III (Cavia porcellus, UniProt H0VIU9).
T2 construct: different forms of cyclic nucleotide phosphodiesterase from guinea pig left ventricular muscles; from tissue; host or cells: guinea pig left ventricular muscle, DEAE-cellulose fraction
T2 sequence (H0VIU9 1-1132): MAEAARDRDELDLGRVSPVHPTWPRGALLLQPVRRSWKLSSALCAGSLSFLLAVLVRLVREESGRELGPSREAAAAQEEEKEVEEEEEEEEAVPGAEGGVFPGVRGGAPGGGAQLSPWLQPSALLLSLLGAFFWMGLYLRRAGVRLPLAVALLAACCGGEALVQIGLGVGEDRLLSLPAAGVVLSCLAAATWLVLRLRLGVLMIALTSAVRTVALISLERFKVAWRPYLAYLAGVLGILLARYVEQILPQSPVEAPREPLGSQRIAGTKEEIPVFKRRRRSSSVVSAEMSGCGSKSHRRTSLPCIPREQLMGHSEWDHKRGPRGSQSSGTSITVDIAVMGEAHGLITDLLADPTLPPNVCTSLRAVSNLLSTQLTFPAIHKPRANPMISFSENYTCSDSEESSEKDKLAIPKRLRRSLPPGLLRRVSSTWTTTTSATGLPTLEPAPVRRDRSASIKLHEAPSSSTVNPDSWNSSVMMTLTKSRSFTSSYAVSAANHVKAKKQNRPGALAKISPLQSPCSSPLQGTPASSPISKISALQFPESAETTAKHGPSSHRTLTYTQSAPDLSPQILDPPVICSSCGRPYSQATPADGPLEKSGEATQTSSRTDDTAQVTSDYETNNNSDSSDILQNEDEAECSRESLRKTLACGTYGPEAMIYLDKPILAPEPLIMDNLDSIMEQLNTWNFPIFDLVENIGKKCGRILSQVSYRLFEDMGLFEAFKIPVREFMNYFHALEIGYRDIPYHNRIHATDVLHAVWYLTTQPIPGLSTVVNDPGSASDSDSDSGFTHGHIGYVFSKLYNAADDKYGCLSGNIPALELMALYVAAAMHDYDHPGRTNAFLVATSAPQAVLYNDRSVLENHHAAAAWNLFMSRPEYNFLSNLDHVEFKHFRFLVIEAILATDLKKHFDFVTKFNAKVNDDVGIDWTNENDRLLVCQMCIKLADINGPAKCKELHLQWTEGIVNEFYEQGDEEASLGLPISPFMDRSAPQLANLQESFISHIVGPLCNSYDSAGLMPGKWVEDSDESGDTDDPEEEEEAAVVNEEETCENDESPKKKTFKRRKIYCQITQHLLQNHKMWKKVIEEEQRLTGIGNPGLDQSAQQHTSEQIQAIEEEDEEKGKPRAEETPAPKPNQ
In words: Inhibition of Phosphodiesterase PDE-III. It is filed as biochemical, guinea pig (left ventricular muscles). The conditions noted are these: 1 mM 3H-cAMP substrate; read-out: phosphodiesterase inhibition IC50 PDE-III.
From the text: as §1, §2, §3

In the next data set the test system is mice. In words: Acute Toxicity in mice, oral single dose. To be noted: male mice, 300 mg/kg, p.o., 7 days observation. It is filed as in vivo, mouse (male). The text has this:
The acute toxicity of the test compounds was studied in male mice after oral administration of a single dose.

`O=C1C=C(Nc2ccc(C3=NNC(=O)CC3)cc2)CC1` [Compound 2, 4,5-Dihydro-6-((4-(3-oxo-1-cyclopentenyl)amino)phenyl)-3(2H)-pyridazinone]: the EC50 with guinea pig left atria was 0.11 µg/mL (≈ 0.408 µM). In addition, the ED50 with Anesthetized Dogs (Canis lupus familiaris, iv, dose producing a 50% increase in LVdp/dtmax, read-out: LVdp/dtmax ED50) amounted to 6 µg/kg. Besides, the “% Changes in Heart rate” value in the data set on Anesthetized Dogs (i.v.) was determined as 6%. Besides, the “% Changes in Blood pressure” value in the data set with Anesthetized Dogs (i.v., femoral arterial pressure) is given as -2%. The IC50 on PDE-I was determined as 1000 µM; on PDE-II, 235 µM; on PDE-III, 1.2 µM. Besides, the “mortality (number of dead animals/number of treated animals)” value with mice is given as 0/3.
